Common to all, as to experiment: NCI tumour cell line growth inhibition, 48 h
In experiment [1] the test system is A498 renal.
The test system of experiment [2] is BT-549 breast.
Experiment [3] has as its system HOP-62 NSCLC.
Experiment [4] has as its system HOP-92 NSCLC.
The subject of experiment [5] is LOX IMVI melanoma.
Experiment [6] relates to NCI-H460 lung.
In experiment [7] the test system is NCI-H522 lung.
Experiment [8] relates to SK-MEL-2 melanoma.
The subject of experiment [9] is TK-10 renal.
Experiment [10] relates to U251 CNS.

Values joined by “and” are separate entries in the source; they are usually repeats but may differ in a detail not shown here. Equal values may be shown once.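 Interpolation was linear, between the two tested concentrations surrounding the appropriate level; five concentrations were tested over 48 hours in 96-well plates. GI50 is the concentration that inhibits growth by half. Definition used: TGI = concentration required for complete inhibition of growth.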

For the compound `CC[C@@H]1C(=O)N(C)c2cnc(Nc3ccc(C(=O)NC4CCN(C)CC4)cc3OC)nc2N1C1CCCC1`, the GI50 in experiment [1] was 24.5 nM and 24.6 nM; in experiment [2] it was 94.8 nM and 41.4 nM; in experiment [3], 5.33 nM and < 10 nM; in experiment [4], 12.5 nM and 14.9 nM; in experiment [5], 4.14 nM and < 10 nM; in experiment [6], 3.86 nM and < 10 nM. For the same compound, the GI50 in [7] was 2.94 nM and < 10 nM; in experiment [9], 285 nM and 123 nM; in experiment [10], 4.92 nM and < 10 nM. Further, the TGI is 146 nM and 368 nM in [1]; > 10000 nM and 12200 nM in experiment [2]; > 10000 nM and 6350 nM in experiment [3]; 563 nM and 2360 nM in experiment [4]; 1330 nM and 1530 nM in experiment [5]; > 10000 nM and 6640 nM in experiment [6]. Besides, the TGI was under 56.1 nM in experiment [7]; > 10000 nM and 6290 nM in [8]; > 7360 nM and 5560 nM in [9]; > 10000 nM and 7790 nM in experiment [10].

With `CCN(CC)CCOc1ccc(/C(=C(\Cl)c2ccccc2)c2ccccc2)cc1`, the GI50 was 6960 nM and 2320 nM in experiment [1]; 5480 nM and 2910 nM in [2]; 1380 nM and 1940 nM in [3]; 1580 nM in [4]; 916 nM and 1670 nM in experiment [5]; 1720 nM and 1780 nM in experiment [6]. Besides, the GI50 in experiment [7] was 3090 nM and 1470 nM; in [8], 3260 nM and 1640 nM; in experiment [9], 5620 nM and 2830 nM; in experiment [10], 1720 nM and 1530 nM. Besides, the TGI in experiment [1] is 13700 nM and 10100 nM; in [2], 11900 nM and 12100 nM; in [3] it was 4760 nM and 4160 nM; in experiment [4], 5400 nM; in experiment [5] it was 1890 nM and 3220 nM; in [6], 5320 nM and 3430 nM. Further, the TGI is 10000 nM and 3020 nM in experiment [7]; 10400 nM and 3700 nM in [8]; 12600 nM and 10200 nM in experiment [9]; 7220 nM and 3510 nM in experiment [10].

On to `Oc1ccc(NCc2nc3ccccc3[nH]2)cc1`, for which the GI50 in [1] was 14700 nM; in [2], 50100 nM; in experiment [3] it was 22400 nM; in experiment [4], 12800 nM; in experiment [5], 73900 nM; in experiment [6], 41900 nM. In addition, the GI50 in experiment [7] was 27700 nM; in experiment [8], 22800 nM; in experiment [9], over 100000 nM; in experiment [10], 28200 nM. In addition, the TGI is over 100000 nM in experiment [1]; over 100000 nM in [2]; 62200 nM in experiment [3]; 53000 nM in experiment [4]; over 100000 nM in [5]; over 100000 nM in experiment [6]. For the same compound, the TGI is over 100000 nM in experiment [7], 98800 nM in [8], over 100000 nM in [9] and over 100000 nM in experiment [10].

Turning to `C=C1C(=O)O[C@H]2[C@H]1CC/C(COC(=O)c1ccc3ccccc3c1)=C\CC[C@@]1(C)O[C@@H]21`, the GI50 in [1] was 1880 nM; in [2], 570 nM; in experiment [3], 1560 nM; in experiment [4] it was 301 nM; in experiment [5], 406 nM; in [6] it was 1690 nM. Moreover, the GI50 in experiment [7] is 739 nM; in experiment [8], 1200 nM; in experiment [9], 1520 nM; in experiment [10], 1210 nM. The TGI turned out to be 4500 nM in [1]; 2030 nM in experiment [2]; 2970 nM in experiment [3]; 1810 nM in experiment [4]; 1460 nM in experiment [5]; 3750 nM in experiment [6]. The TGI turned out to be 2200 nM in [7], 2610 nM in [8], 2850 nM in experiment [9] and 2500 nM in experiment [10].

Consider `C=C1C(=O)O[C@H]2[C@H]1CC/C(Cn1cc(-c3ccc(OC)cc3)nn1)=C\CC[C@@]1(C)O[C@@H]21`, for which the GI50 in experiment [1] is 2350 nM; in experiment [2], 1310 nM; in [3] it was 10500 nM; in experiment [4] it was 1130 nM; in experiment [5], 1160 nM; in experiment [6], 8450 nM. In addition, the GI50 in experiment [7] is 387 nM; in experiment [8] it was 1950 nM; in experiment [9], 1420 nM; in experiment [10] it was 9450 nM. The TGI in [1] is 11300 nM; in [2], 2890 nM; in experiment [3] it was 23100 nM; in experiment [4], 2690 nM; in experiment [5] it was 2510 nM; in [6] it was 25200 nM. Further, the TGI in experiment [7] was found to be 1730 nM; in experiment [8], 4610 nM; in experiment [9], 2850 nM; in experiment [10], 21500 nM.

These data come from PubChem BioAssay (NCI).
